The target in one assay is T1, Type-1 angiotensin II receptor (Homo sapiens, UniProt P30556).
T1 sequence (P30556 whole entry): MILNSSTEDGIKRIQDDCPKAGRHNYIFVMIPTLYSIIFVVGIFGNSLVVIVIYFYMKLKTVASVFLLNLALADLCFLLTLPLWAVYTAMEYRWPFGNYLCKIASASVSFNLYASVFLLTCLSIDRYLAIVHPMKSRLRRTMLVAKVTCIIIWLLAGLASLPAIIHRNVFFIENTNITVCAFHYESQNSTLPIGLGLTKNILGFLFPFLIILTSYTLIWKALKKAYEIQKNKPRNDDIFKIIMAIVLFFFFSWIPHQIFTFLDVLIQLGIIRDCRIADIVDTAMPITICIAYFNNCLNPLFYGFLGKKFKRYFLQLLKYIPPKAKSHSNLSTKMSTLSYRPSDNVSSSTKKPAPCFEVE
Kind of assay: Agonist activity at human AGTR1 stably expressed in CHO cells assessed as increase in intracellular calcium mobilization measured at 1 sec intervals for 90 sec by calcium 5 dye based FLIPR assay. The assay is classed as functional, cell-based. On the technique in general: Calcium assays in cells follow changes in intracellular calcium, usually with a dye or a luminescent sensor.
What is called EC50 is the concentration at which the effect is half-maximal. Consider `COc1cccc(OC)c1-c1cc(C(=O)N[C@@H](CCc2ccccc2)CC(=O)NC2CCC2)nn1CC(C)C`, for which the EC50 is more than 10 µM.

As for `COc1cccc(OC)c1-c1cc(C(=O)N[C@@H](CCC2CCCCC2)CC(=O)NC2CCC2)nn1C1CCCCC1`, the EC50 was more than 10 µM.

On to `CC[C@@H](O)CNC(=O)C[C@H](CCC1CCCCC1)NC(=O)c1cc(-c2c(OC)cccc2OC)n(CC(C)C)n1`, for which the EC50 is more than 10 µM.

In the case of `COc1cccc(OC)c1-c1cc(C(=O)N[C@@H](CCC2CCCCC2)CC(=O)O)nn1-c1ccc(F)cc1`, the EC50 was more than 10 µM.

In the case of `COc1cccc(OC)c1-c1cc(C(=O)N[C@@H](CCC2CCCCC2)CC(=O)NC2CCC2)nn1C1CCCC1`, the EC50 is more than 10 µM.

For the molecule `COC(=O)CN(C)C(=O)[C@H](CCc1ccccc1)NC(=O)c1cc(-c2c(OC)cccc2OC)n(CC(C)C)n1`, the EC50 is more than 10 µM.

As to `CCC(O)CNC(=O)C[C@H](CCC1CCCCC1)NC(=O)c1cc(-c2c(OC)cccc2OC)n(CC(C)C)n1` (some centres undefined), the EC50 was more than 10 µM.

Take `CCC(=O)CNC(=O)[C@H](CCc1ccccc1)NC(=O)c1cc(-c2c(OC)cccc2OC)n(CC(C)C)n1`: the half-maximal effective concentration (EC50) was more than 10 µM.

As for `CCCn1nc(C(=O)N[C@@H](CCC2CCCCC2)CC(=O)NC2CCC2)cc1-c1c(OC)cccc1OC`, the EC50 was more than 10 µM.

As for `COc1cccc(OC)c1-c1cc(C(=O)N[C@@H](CCC2CCCCC2)CC(=O)NC2CCC2)nn1CC(C)C`, the EC50 was more than 10 µM.

On to `CCC(=O)CNC(=O)C[C@H](CCC1CCCCC1)NC(=O)c1cc(-c2c(OC)cccc2OC)n(CC(C)C)n1`, for which the EC50 was more than 10 µM.

The target of a further assay is T2, Apelin receptor (Homo sapiens, UniProt P35414).
T2 sequence (P35414 whole entry): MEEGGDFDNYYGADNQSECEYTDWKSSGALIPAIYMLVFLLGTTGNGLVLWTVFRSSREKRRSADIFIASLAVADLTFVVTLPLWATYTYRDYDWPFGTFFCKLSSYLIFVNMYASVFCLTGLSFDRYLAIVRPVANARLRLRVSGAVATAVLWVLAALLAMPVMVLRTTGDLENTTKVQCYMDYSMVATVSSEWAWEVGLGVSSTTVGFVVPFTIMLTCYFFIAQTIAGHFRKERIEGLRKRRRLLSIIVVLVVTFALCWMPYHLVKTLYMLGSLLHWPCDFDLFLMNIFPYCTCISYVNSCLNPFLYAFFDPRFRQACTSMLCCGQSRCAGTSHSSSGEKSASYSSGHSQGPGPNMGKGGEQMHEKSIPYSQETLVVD
Description: Agonist activity at human APJ receptor stably expressed in CHO cells assessed as inhibition of forskolin-induced cAMP accumulation measured after 30 mins by Eu-cAMP tracer based TR-FRET assay
`COc1cccc(OC)c1-c1cc(C(=O)N[C@@H](CCc2ccccc2)CC(=O)O)nn1CC(C)C` had an EC50 of more than 10 µM.

Another assay deals with T2, Apelin receptor. The source holds these as a separate data set.
Description: Agonist activity at human APJ receptor stably expressed in CHO cells co-expressing Galphaq16 assessed as increase in intracellular calcium mobilization measured at 1 sec intervals for 90 secs by calcium 5 dye based FLIPR assay
For `COc1cccc(OC)c1-c1cc(C(=O)N[C@@H](CCc2ccccc2)CC(=O)O)nn1CC(C)C`, the EC50 was more than 10 µM.

The next assay has as its target T2, Apelin receptor. This is another data set of the same source.
Description: Agonist activity at human APJ receptor stably expressed in CHOK1 cells assessed as induction of beta-arrestin 2 recruitment incubated for 90 mins by PathHunter assay
For `COc1cccc(OC)c1-c1cc(C(=O)N[C@@H](CCc2ccccc2)CC(=O)O)nn1CC(C)C`, the half-maximal effective concentration (EC50) is more than 10 µM.

The record behind these values is ChEMBL document CHEMBL4627251, “Identification of potent pyrazole based APELIN receptor (APJ) agonists” (Bioorg Med Chem, 2020).
